Test results as given in publication PMC11435058, “Synthesis of New Thiazole-Privileged Chalcones as Tubulin Polymerization Inhibitors with Potential Anticancer Activities” (Pharmaceuticals, 2024).

Experiments:
M14 = assay: NCI-60 anticancer screen (SRB; single dose and five doses); details: Homo sapiens
SNB-19 = assay: cells; details: Homo sapiens
HS 578T = assay: NCI-60 anticancer screen (SRB; single dose and five doses); details: Homo sapiens
RXF 393 = assay: as above; details: Homo sapiens
SK-OV-3 = assay: as above; details: Homo sapiens
SW-620 = assay: as above; details: Homo sapiens
HOP-62 = assay: as above; details: Homo sapiens
UO-31 = assay: as above; details: Homo sapiens
MDA-MB-435 = assay: as above; details: Homo sapiens
BT-549 = assay: as above; details: Homo sapiens
MALME-3M = assay: as above; details: Homo sapiens
U251 = assay: as above; details: Homo sapiens
NCI-H522 = assay: as above; details: Homo sapiens
NCI-H226 = assay: as above; details: Homo sapiens
NCI-H322M = assay: as above; details: Homo sapiens
SK-MEL-2 = assay: as above; details: Homo sapiens
786-0 = assay: as above; details: Homo sapiens
OVCAR-3 = assay: cells; details: Homo sapiens
RPMI-8226 = assay: NCI-60 anticancer screen (SRB; single dose and five doses); details: Homo sapiens
SNB-75 = assay: as above
SF-268 = assay: as above; details: Homo sapiens
A549/ATCC = assay: as above; details: Homo sapiens
SR = assay: as above; details: Homo sapiens
TK-10 = assay: as above; details: Homo sapiens
CAKI-1 = assay: as above; details: Homo sapiens
HCT-15 = assay: as above; details: Homo sapiens
SF-539 = assay: as above; details: Homo sapiens
MDA-MB-231/ATCC = assay: as above; details: Homo sapiens
OVCAR-4 = assay: as above; details: Homo sapiens

SMILES: COc1cc(/C=C/C(=O)c2sc(=S)[nH]c2C)cc(OC)c1OC [2p, (E)-1-(4-Methyl-2-Thioxo-2,3-Dihydrothiazol-5-yl)-3-(3,4,5-Trimethoxyphenyl)Prop-2-En-1-One]
- GI50 (M14; M14): 3.24 µM
- IC50 (M14; M14): 5.13 µM
- activity at 10 µM (M14; M14, 48 h, read-out: Growth Percentage): 15.4%
- IC (TGI) (M14; M14, read-out: TGI): 13.2 µM
- GI50 (SNB-19; SNB-19): 5.01 µM
- IC50 (SNB-19; SNB-19): 13.2 µM
- activity at 10 µM (SNB-19; SNB-19, 48 h, read-out: Growth Percentage): 19.6%
- CC50 (SNB-19; SNB-19, read-out: LC50): 43.6 µM
- IC (TGI) (SNB-19; SNB-19, read-out: TGI): 17.8 µM
- GI50 (HS 578T): 2.88 µM
- IC50 (HS 578T): > 100 µM
- activity at 10 µM (HS 578T; 48 h, read-out: Growth Percentage): 3.94%
- CC50 (HS 578T; read-out: LC50): > 100 µM
- IC (TGI) (HS 578T; read-out: TGI): 39.8 µM
- GI50 (RXF 393; RXF 393): 2.51 µM
- IC50 (RXF 393; RXF 393): 11.2 µM
- activity at 10 µM (RXF 393; RXF 393, 48 h, read-out: Growth Percentage): 30.3%
- CC50 (RXF 393; RXF 393, read-out: LC50): 30.9 µM
- IC (TGI) (RXF 393; RXF 393, read-out: TGI): 7.08 µM
- GI50 (SK-OV-3; SK-OV-3): 7.41 µM
- IC50 (SK-OV-3; SK-OV-3): 46.8 µM
- activity at 10 µM (SK-OV-3; SK-OV-3, 48 h, read-out: Growth Percentage): 31.2%
- CC50 (SK-OV-3; SK-OV-3, read-out: LC50): > 100 µM
- IC (TGI) (SK-OV-3; SK-OV-3, read-out: TGI): > 100 µM
- GI50 (SW-620; SW-620): 2.57 µM
- IC50 (SW-620; SW-620): 3.72 µM
- activity at 10 µM (SW-620; SW-620, 48 h, read-out: Growth Percentage): 6.92%
- CC50 (SW-620; SW-620, read-out: LC50): 46.8 µM
- IC (TGI) (SW-620; SW-620, read-out: TGI): 9.77 µM
- GI50 (HOP-62; HOP-62): 3.16 µM
- IC50 (HOP-62; HOP-62): 5.37 µM
- activity at 10 µM (HOP-62; HOP-62, 48 h, read-out: Growth Percentage): 4.61%
- CC50 (HOP-62; HOP-62, read-out: LC50): > 100 µM
- IC (TGI) (HOP-62; HOP-62, read-out: TGI): 16.2 µM
- GI50 (UO-31; UO-31): 3.02 µM
- IC50 (UO-31; UO-31): 7.76 µM
- IC (TGI) (UO-31; UO-31, read-out: TGI): 15.5 µM
- GI50 (MDA-MB-435; MDA-MB-435): 2.57 µM
- IC50 (MDA-MB-435; MDA-MB-435): 4.47 µM
- activity at 10 µM (MDA-MB-435; MDA-MB-435, 48 h, read-out: Growth Percentage): 11%
- CC50 (MDA-MB-435; MDA-MB-435, read-out: LC50): > 100 µM
- IC (TGI) (MDA-MB-435; MDA-MB-435, read-out: TGI): 10.5 µM
- GI50 (BT-549; BT-549): 2.95 µM
- IC50 (BT-549; BT-549): 11.8 µM
- activity at 10 µM (BT-549; BT-549, 48 h, read-out: Growth Percentage): -11.8%
- IC (TGI) (BT-549; BT-549, read-out: TGI): 10.7 µM
- GI50 (MALME-3M): 5.75 µM
- IC50 (MALME-3M): 17.8 µM
- CC50 (MALME-3M; read-out: LC50): 55 µM
- IC (TGI) (MALME-3M; read-out: TGI): 20.4 µM
- GI50 (U251; U-251): 3.02 µM
- IC50 (U251; U-251): 4.17 µM
- activity at 10 µM (U251; U-251, 48 h, read-out: Growth Percentage): 15%
- CC50 (U251; U-251, read-out: LC50): 43.6 µM
- IC (TGI) (U251; U-251, read-out: TGI): 12 µM
- GI50 (NCI-H522; NCI-H522): 3.16 µM
- IC50 (NCI-H522; NCI-H522): 7.59 µM
- activity at 10 µM (NCI-H522; NCI-H522, 48 h, read-out: Growth Percentage): 16.3%
- CC50 (NCI-H522; NCI-H522, read-out: LC50): 40.7 µM
- IC (TGI) (NCI-H522; NCI-H522, read-out: TGI): 12.3 µM
- GI50 (NCI-H226; NCI-H226): 3.63 µM
- IC50 (NCI-H226; NCI-H226): 32.4 µM
- activity at 10 µM (NCI-H226; NCI-H226, 48 h, read-out: Growth Percentage): 16.4%
- CC50 (NCI-H226; NCI-H226, read-out: LC50): > 100 µM
- IC (TGI) (NCI-H226; NCI-H226, read-out: TGI): 36.3 µM
- GI50 (NCI-H322M): 4.57 µM
- IC50 (NCI-H322M): 14.1 µM
- CC50 (NCI-H322M; read-out: LC50): 51.3 µM
- IC (TGI) (NCI-H322M; read-out: TGI): 18.6 µM
- GI50 (SK-MEL-2; SK-MEL-2): 3.09 µM
- IC50 (SK-MEL-2; SK-MEL-2): 11 µM
- activity at 10 µM (SK-MEL-2; SK-MEL-2, 48 h, read-out: Growth Percentage): 34.9%
- CC50 (SK-MEL-2; SK-MEL-2, read-out: LC50): 42.7 µM
- IC (TGI) (SK-MEL-2; SK-MEL-2, read-out: TGI): 11.5 µM
- GI50 (786-0; 786-0): 4.57 µM
- IC50 (786-0; 786-0): 6.61 µM
- activity at 10 µM (786-0; 786-0, 48 h, read-out: Growth Percentage): 21.1%
- CC50 (786-0; 786-0, read-out: LC50): 97.7 µM
- IC (TGI) (786-0; 786-0, read-out: TGI): 20.9 µM
- GI50 (OVCAR-3; OVCAR-3): 2.45 µM
- activity at 10 µM (OVCAR-3; OVCAR-3, 48 h, read-out: Growth Percentage): -25.2%
- IC50 (OVCAR-3; OVCAR-3, five-dose, Ovarian Cancer OVCAR-3): 5.25 µM
- CC50 (OVCAR-3; OVCAR-3, read-out: LC50): 25.7 µM
- IC (TGI) (OVCAR-3; OVCAR-3, read-out: TGI): 6.92 µM
- GI50 (RPMI-8226; RPMI-8226): 2.19 µM
- IC50 (RPMI-8226; RPMI-8226): 4.47 µM
- activity at 10 µM (RPMI-8226; RPMI-8226, 48 h, read-out: Growth Percentage): 5.31%
- CC50 (RPMI-8226; RPMI-8226, read-out: LC50): > 100 µM
- IC (TGI) (RPMI-8226; RPMI-8226, read-out: TGI): 9.12 µM
- GI50 (SNB-75; Homo sapiens, SNB-75): 2.19 µM
- IC50 (SNB-75; Homo sapiens, SNB-75): 7.59 µM
- CC50 (SNB-75; Homo sapiens, SNB-75, read-out: LC50): 28.8 µM
- TGI (SNB-75; five-dose, CNS Cancer SNB-75): 6.17 µM
- GI50 (SF-268; SF-268): 2.63 µM
- IC50 (SF-268; SF-268): 6.46 µM
- activity at 10 µM (SF-268; SF-268, 48 h, read-out: Growth Percentage): 18.5%
- CC50 (SF-268; SF-268, read-out: LC50): 55 µM
- IC (TGI) (SF-268; SF-268, read-out: TGI): 11.2 µM
- GI50 (A549/ATCC; A549): 3.55 µM
- IC50 (A549/ATCC; A549): 5.01 µM
- activity at 10 µM (A549/ATCC; A549, 48 h, read-out: Growth Percentage): 26.6%
- CC50 (A549/ATCC; A549, read-out: LC50): 44.7 µM
- IC (TGI) (A549/ATCC; A549, read-out: TGI): 13.8 µM
- GI50 (SR): 2.34 µM
- IC50 (SR): 3.8 µM
- CC50 (SR; read-out: LC50): > 100 µM
- IC (TGI) (SR; read-out: TGI): 16.2 µM
- GI50 (TK-10; TK-10): 5.01 µM
- IC50 (TK-10; TK-10): 16.2 µM
- activity at 10 µM (TK-10; TK-10, 48 h, read-out: Growth Percentage): 53%
- CC50 (TK-10; TK-10, read-out: LC50): 47.9 µM
- IC (TGI) (TK-10; TK-10, read-out: TGI): 17.8 µM
- GI50 (CAKI-1; CAKI-1): 2.57 µM
- IC50 (CAKI-1; CAKI-1): 4.68 µM
- activity at 10 µM (CAKI-1; CAKI-1, 48 h, read-out: Growth Percentage): 28.2%
- CC50 (CAKI-1; CAKI-1, read-out: LC50): 45.7 µM
- IC (TGI) (CAKI-1; CAKI-1, read-out: TGI): 13.2 µM
- GI50 (HCT-15; HCT-15): 3.24 µM
- IC50 (HCT-15; HCT-15): 4.17 µM
- activity at 10 µM (HCT-15; HCT-15, 48 h, read-out: Growth Percentage): -3.26%
- CC50 (HCT-15; HCT-15, read-out: LC50): 74.1 µM
- IC (TGI) (HCT-15; HCT-15, read-out: TGI): 15.5 µM
- GI50 (SF-539; SF-539): 2.19 µM
- IC50 (SF-539; SF-539): 4.47 µM
- activity at 10 µM (SF-539; SF-539, 48 h, read-out: Growth Percentage): -13.9%
- IC (TGI) (SF-539; SF-539, read-out: TGI): 5.5 µM
- GI50 (MDA-MB-231/ATCC; MDA-MB-231): 3.24 µM
- IC50 (MDA-MB-231/ATCC; MDA-MB-231): 10 µM
- activity at 10 µM (MDA-MB-231/ATCC; MDA-MB-231, 48 h, read-out: Growth Percentage): 2.51%
- CC50 (MDA-MB-231/ATCC; MDA-MB-231, read-out: LC50): > 100 µM
- IC (TGI) (MDA-MB-231/ATCC; MDA-MB-231, read-out: TGI): 13.2 µM
- GI50 (OVCAR-4; OVCAR-4): 2.82 µM
- IC50 (OVCAR-4; OVCAR-4): 6.61 µM
- activity at 10 µM (OVCAR-4; OVCAR-4, 48 h, read-out: Growth Percentage): 15.6%
- CC50 (OVCAR-4; OVCAR-4, read-out: LC50): 51.3 µM
- IC (TGI) (OVCAR-4; OVCAR-4, read-out: TGI): 12.6 µM
